From publication PMC7076710, “Synthesis, Identification, and Structure–Activity Relationship Analysis of GATA4 and NKX2-5 Protein–Protein Interaction Modulators” (Journal of Medicinal Chemistry, 2019) come the findings set out here.

Holding throughout (type): cell-based
In data set [1] the target is T1, GATA4–NKX2-5 transcriptional synergy (Mus musculus, UniProt P42582+Q08369).
T1 construct: expressed in transfected cells; host or cells: COS-1
As to the kind of experiment: GATA4–NKX2-5 transcriptional synergy luciferase reporter assay (3xNKE reporter, COS-1 cells). The conditions noted are these: COS-1, luciferase reporter activity relative to control.

Data set [2] has as its system COS-1 cells. As to the kind of experiment: MTT assay (cell viability). The conditions noted are these: for MTT.1µM / MTT.3µM / MTT.10µM / MTT.30µM: cell viability; for toxicity class in the MTT assay: 24-h exposure, classified at 10 μM. On the technique in general: Tetrazolium dyes change colour on reduction, which living cells bring about.
The subject of data set [3] is COS-1 cells. As to the kind of experiment: LDH assay (necrosis).
Data set [4] deals with T2, NKX2-5 transcriptional activity (Mus musculus, UniProt P42582).
T2 construct: expressed in transfected cells; host or cells: COS-1
T2 sequence (P42582 whole entry): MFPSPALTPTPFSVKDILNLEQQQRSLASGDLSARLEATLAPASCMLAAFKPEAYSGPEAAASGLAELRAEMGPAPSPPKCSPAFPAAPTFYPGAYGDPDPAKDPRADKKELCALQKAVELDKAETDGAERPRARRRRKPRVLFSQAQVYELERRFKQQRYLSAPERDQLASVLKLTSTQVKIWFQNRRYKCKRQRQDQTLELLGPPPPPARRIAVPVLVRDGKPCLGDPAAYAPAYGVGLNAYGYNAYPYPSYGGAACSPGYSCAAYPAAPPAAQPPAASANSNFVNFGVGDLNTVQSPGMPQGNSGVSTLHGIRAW
As to the kind of experiment: NKX2-5 luciferase reporter assay (3xNKE reporter, COS-1 cells). The settings on record: COS-1, luciferase reporter activity relative to control; for activity at 3 µM: read-out: NKX.3µM; for activity at 10 µM: read-out: NKX.10µM. (In general: A reporter such as luciferase makes a cellular process visible.)

Data set [5] has as its target T3, GATA4 transcriptional activity (Mus musculus, UniProt Q08369).
T3 construct: expressed in transfected cells; host or cells: COS-1
The data set is described as follows: GATA4 luciferase reporter assay (tandem GATA-site reporter, COS-1 cells). The conditions noted are these: for activity at 3 µM / activity at 10 µM: COS-1, luciferase reporter activity relative to control.

Structures are written as SMILES.

T3 sequence (Q08369 whole entry): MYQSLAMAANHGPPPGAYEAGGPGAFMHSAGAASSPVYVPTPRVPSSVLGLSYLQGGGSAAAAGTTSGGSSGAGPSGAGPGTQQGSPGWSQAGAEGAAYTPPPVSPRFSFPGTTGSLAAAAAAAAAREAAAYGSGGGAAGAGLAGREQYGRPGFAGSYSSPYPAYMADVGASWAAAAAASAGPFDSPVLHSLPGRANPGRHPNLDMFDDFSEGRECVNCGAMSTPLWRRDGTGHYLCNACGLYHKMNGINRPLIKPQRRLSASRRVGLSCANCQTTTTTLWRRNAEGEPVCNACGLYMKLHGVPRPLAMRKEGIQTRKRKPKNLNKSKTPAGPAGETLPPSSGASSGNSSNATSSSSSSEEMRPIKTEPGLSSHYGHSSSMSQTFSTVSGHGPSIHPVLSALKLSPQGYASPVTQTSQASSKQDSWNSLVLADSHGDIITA
T1 sequence (Q08369 whole entry): as above
T1 sequence (P42582 whole entry): as the sequence (P42582 whole entry) above

Turning to `CCN(CC)c1ccc(NC(=O)c2cnc3ncccn23)cc1` [Compound 47aa], in data set [1], the activity at 3 µM worked out at 101% and the activity at 10 µM is 144%. In the data set with COS-1 cells [2], the MTT.1µM came out at 101.8, the MTT.3µM stood at 103.86, the MTT.10µM came to 99.76 and the MTT.30µM came out at 95.63. For the same compound, in the data set with COS-1 cells [3], the LDH.1µM is given as 1.59, the LDH.3µM is 1, the LDH.10µM came out at 1.6 and the LDH.30µM is -0.51. In data set [4], the activity at 3 µM was determined as 112% and the activity at 10 µM amounted to 118%. The “GATA4 (% of control) Mean ± SD” value in data set [5] (10 μM, COS-1 cells, 24 h) was 130 % of control. Also, in data set [5], the activity at 3 µM is 108% and the activity at 10 µM amounted to 132%.

As to `CCN(CC)c1ccc(NC(=O)c2cnoc2-c2ccccc2)cc1` [Compound 47d], in data set [1], the activity at 3 µM is 65.4%. Moreover, in the data set on COS-1 cells [2], the MTT.1µM is 107.01, the MTT.3µM is 95.86, the MTT.10µM amounted to 90.87 and the MTT.30µM was found to be 93.95. Moreover, in the data set on COS-1 cells [3], the LDH.1µM came out at 3.03, the LDH.3µM stood at 0.88, the LDH.10µM is on record as -0.44 and the LDH.30µM is on record as 0.42. In addition, the activity at 3 µM in data set [4] was found to be 56.3%. Also, the activity at 3 µM in data set [5] was 95.2%.

For `CCN(CC)c1ccc(NC(=O)c2csc(C)c2-c2ccccc2)cc1` [Compound 47t], the activity at 3 µM in data set [1] came to 61.5%. In the data set with COS-1 cells [2], this compound gave an MTT.1µM of 106.87, an MTT.3µM of 104.76, an MTT.10µM of 104.28 and an MTT.30µM of 99.24. Moreover, the “toxicity class in the MTT assay” value in the data set on COS-1 cells [2] was “nontoxic (nontoxic compounds (cell viability >90%))”. For the same compound, in the data set with COS-1 cells [3], the LDH.1µM turned out to be 0.5, the LDH.3µM is 1.08, the LDH.10µM stood at 0.5 and the LDH.30µM was found to be 2.38. Besides, the activity at 3 µM in data set [4] stood at 55.2%. Moreover, the activity at 3 µM in data set [5] came to 74.4%.

As for `CCN(CC)c1ccc(NC(=O)c2csc([N+](=O)[O-])c2)cc1` [Compound 47u], in data set [1], the activity at 3 µM was 32.3% and the activity at 10 µM is 24.5%. In the data set with COS-1 cells [2], this compound had an MTT.1µM of 105.56, an MTT.3µM of 102.26, an MTT.10µM of 97.2 and an MTT.30µM of 88.36. In addition, in the data set on COS-1 cells [3], the LDH.1µM is given as 7.78, the LDH.3µM stood at 6.19, the LDH.10µM is on record as 2.98 and the LDH.30µM is 1.83. The activity at 3 µM in data set [4] was found to be 37.8%. In addition, in data set [5], the activity at 3 µM is 28.7%.

`CCN(CC)c1ccc(NC(=O)c2cnc(SC)n2-c2ccc(F)cc2)cc1` [Compound 47z]: in data set [1], the activity at 3 µM came out at 67.6%. In the data set with COS-1 cells [2], this compound yielded an MTT.1µM of 102.53, an MTT.3µM of 95.99, an MTT.10µM of 96.05 and an MTT.30µM of 93. In the data set with COS-1 cells [3], this compound yielded an LDH.1µM of 0.94, an LDH.3µM of 1.33, an LDH.10µM of -0.3 and an LDH.30µM of -0.25. Further, the activity at 3 µM in data set [4] stood at 91.1%. Besides, the activity at 3 µM in data set [5] is 91.4%.

In the case of `CCN(CC)c1ccc(NC(=O)c2cc(C)oc2-c2ccccc2)cc1` [Compound 54], in data set [1], the activity at 3 µM came to 46% and the activity at 10 µM came out at 35.4%. In the data set with COS-1 cells [2], the MTT.1µM stood at 97.73, the MTT.3µM is listed as 83.61, the MTT.10µM turned out to be 74.16 and the MTT.30µM was found to be 71.09. For the same compound, the “toxicity class in the MTT assay” value in the data set with COS-1 cells [2] is recorded as “most toxic”. In the data set with COS-1 cells [3], this compound showed an LDH.1µM of 1.02, an LDH.3µM of 0.88, an LDH.10µM of -0.26 and an LDH.30µM of 3.27. Further, in data set [4], the activity at 3 µM stood at 60.8%. Besides, the activity at 3 µM in data set [5] turned out to be 72.4%.

With `CCN(c1ccc(NC(=O)c2c(C)noc2-c2ccccc2)cc1)C(C)C` [Compound 63], in data set [1], the activity at 3 µM was found to be 41.6%. In the data set with COS-1 cells [2], this compound gave an MTT.1µM of 99.16, an MTT.3µM of 82.83, an MTT.10µM of 75.83 and an MTT.30µM of 61.58. In the data set on COS-1 cells [3], this compound yielded an LDH.1µM of 0.04, an LDH.3µM of -1.53, an LDH.10µM of -2.08 and an LDH.30µM of 0.01. Besides, the activity at 3 µM in data set [4] worked out at 69.7%. Besides, in data set [5], the activity at 3 µM was determined as 68%.

As to `CC(=O)N(Cc1ccc(N(C)C)cc1)c1c(-c2ccccc2)noc1C` [Compound 64], the activity at 3 µM in data set [1] was determined as 40.2%. In the data set on COS-1 cells [2], this compound registered an MTT.1µM of 98.18, an MTT.3µM of 84.51, an MTT.10µM of 77.4 and an MTT.30µM of 65.98. For the same compound, in the data set with COS-1 cells [3], the LDH.1µM came out at 0.55, the LDH.3µM is given as -0.52, the LDH.10µM is -0.2 and the LDH.30µM is given as -0.49. In data set [4], the activity at 3 µM turned out to be 62.1% and the activity at 10 µM is 44.1%. For the same compound, the activity at 3 µM in data set [5] turned out to be 59.6%.

As for `CCN(CC)c1ccc(NC(=O)c2c(C)noc2-c2ccccc2)cc1` [Compound 65], the activity at 3 µM in data set [1] was found to be 51.9%. Moreover, in the data set on COS-1 cells [2], the MTT.1µM worked out at 96.79, the MTT.3µM came out at 83.46, the MTT.10µM worked out at 81.39 and the MTT.30µM came to 84.64. In addition, in the data set with COS-1 cells [3], the LDH.1µM was determined as 0.39, the LDH.3µM was -0.82, the LDH.10µM was -1.85 and the LDH.30µM was -0.07. Moreover, in data set [4], the activity at 3 µM was determined as 53.5%. For the same compound, in data set [5], the activity at 3 µM was determined as 90% and the activity at 10 µM was determined as 64.2%.

Regarding `CCN(CC)c1ccc(NC(=O)c2c(-c3ccccc3)nnn2CCc2ccccc2)cc1` [Compound 71], in data set [1], the activity at 3 µM is 75.2% and the activity at 10 µM is 33%. In the data set on COS-1 cells [2], this compound yielded an MTT.1µM of 103.27, an MTT.3µM of 98.93, an MTT.10µM of 94.48 and an MTT.30µM of 80.74. In the data set on COS-1 cells [3], this compound gave an LDH.1µM of 0.03, an LDH.3µM of -0.62, an LDH.10µM of -0.76 and an LDH.30µM of 1.31. For the same compound, in data set [4], the activity at 3 µM was 76% and the activity at 10 µM is 33.6%. Further, the activity at 3 µM in data set [5] is 72.5%.

On to `CC[N+](O)(CC)c1ccc(NC(=O)c2c(-c3ccccc3)noc2C)cc1` [SI4], for which, in data set [1], the activity at 3 µM amounted to 101% and the activity at 10 µM was determined as 93.6%. In addition, in the data set with COS-1 cells [2], the MTT.1µM worked out at 104.81, the MTT.3µM came out at 107.68, the MTT.10µM came to 104.23 and the MTT.30µM was 95.62. In the data set with COS-1 cells [3], the LDH.1µM is 3.36, the LDH.3µM was determined as 1.95, the LDH.10µM came out at 1 and the LDH.30µM is -1.21. Besides, in data set [4], the activity at 3 µM is 118% and the activity at 10 µM is 99.9%. In data set [5], the activity at 3 µM was 87.2% and the activity at 10 µM was found to be 86.9%.
